Results from publication PMC8290231 (Cancer Medicine, 2021).
Like-named read-outs stand apart in the source and are kept apart here. Blank lines part the entries; values can stand above or below the molecule they belong to.

Assays:
Assay type in all cases: cell-based
NCI‐H716 = test: CCK-8 cell proliferation assay; conditions: Homo sapiens, NCI-H716; FGFR2 amplification; CCK-8, 72 h; read-out: antiproliferative IC50, NCI‐H716
Protocol: (§1) The base medium for MDA‐MB‐453 cell line is DMEM medium (CORNING, USA). All other cell lines were cultured in RPMI‐1640 medium supplemented with 10% FBS, 100 U/ml of penicillin, and […] of streptomycin in 5% CO2 at 37℃. The cells in the logarithmic growth phase were used for the experiments.
(§2) Cells were seeded in 96‐well plate in complete medium (1000–6000 cells/well) and cultured for overnight. Then the cells were exposed to gradient concentrations (0.0005–10 μM) of compounds. Cell proliferation was analyzed by Cell Counting Kit 8 (CK04, Dojindo Laboratories, Japan) after co‐incubation for a further 72 h. IC50 values were calculated by fitting of concentration–response curves using GraphPad Prism 8.01 software. Each assay was repeated at least three times.
(§3) The expression and activation levels of FGFR1–4 in these cells were determined via western blot experiments (Figure S1).

KATOIII = test: CCK-8 cell proliferation assay; conditions: Homo sapiens, KATO III; FGFR2 amplification; CCK-8, 72 h; read-out: antiproliferative IC50, KATOIII
Protocol: as §1, §2, §3

SNU16 = test: CCK-8 cell proliferation assay; conditions: Homo sapiens, SNU-16; FGFR2 amplification; CCK-8, 72 h; read-out: antiproliferative IC50, SNU16
Protocol: as §1, §2, §3

H1581 = test: CCK-8 cell proliferation assay; conditions: Homo sapiens, NCI-H1581; FGFR1 amplification; CCK-8, 72 h; read-out: antiproliferative IC50, H1581
Protocol: as §1, §2, §3

MDA‐MB‐231 = test: CCK-8 cell proliferation assay; conditions: CCK-8, 72 h
Protocol: as §1, §2, §3

MKN‐1 = test: CCK-8 cell proliferation assay; conditions: Homo sapiens, MKN-1; negative control; CCK-8, 72 h; read-out: antiproliferative IC50, MKN‐1
Protocol: as §1, §2, §3

MDA‐MB‐453 = test: CCK-8 cell proliferation assay; conditions: Homo sapiens, MDA-MB-453; FGFR4‐Y367C; CCK-8, 72 h; read-out: antiproliferative IC50, MDA‐MB‐453
Protocol: as §1, §2, §3

RT112 = test: CCK-8 cell proliferation assay; conditions: Homo sapiens, RT-112; FGFR3‐TACC3; CCK-8, 72 h; read-out: antiproliferative IC50, RT112
Protocol: as §1, §2, §3

Ba/F3‐FGFR1 = test: CCK-8 proliferation assay in Ba/F3 stable cells; conditions: Mus musculus, read-out: IC50 (μΜ) Ba/F3‐FGFR1
Protocol: (§4) The Ba/F3 cell lines stably expressing FGFR1, FGFR1‐V561M, FGFR1‐V561F, FGFR1‐K656N, and FGFR1‐K656E were self‐established through electroporation pCDNA3.1‐TEL plasmids using the Amaxa Cell Line Nucleofector Kit V (Lonza, Cologne, Germany). Stable cell lines were selected by G418 (Merck, USA) and then withdrawal of IL‐3 (R&D). […] Parental Ba/F3 cells were maintained in RPMI 1640 supplemented with 10% FBS, 100 U/ml of penicillin, […] of streptomycin, and 10 ng/ml of IL‐3, while all Ba/F3 stable cell lines were cultured in the same medium without IL‐3.
as §2
(§5) There is, however, no commercially available FGFR1 mutant kinase to validate this. Therefore, we constructed Ba/F3 model cells stably expressing FGFR1‐WT, K656E, K656N, V561M, and V561F mutations.

Ba/F3‐FGFR1‐V561F [1] = test: CCK-8 proliferation assay in Ba/F3 stable cells; conditions: Mus musculus
Protocol: as §4, §2, §5

Ba/F3‐FGFR1‐K656N = test: CCK-8 proliferation assay in Ba/F3 stable cells; conditions: Mus musculus, read-out: IC50 (μΜ) Ba/F3‐FGFR1‐K656N
Protocol: as §4, §2, §5

Ba/F3‐FGFR1‐V561M = test: CCK-8 proliferation assay in Ba/F3 stable cells; conditions: Mus musculus
Protocol: as §4, §2, §5

Ba/F3‐FGFR1‐K656E = test: CCK-8 proliferation assay in Ba/F3 stable cells; conditions: Mus musculus
Protocol: as §4, §2, §5

[2] = test system: FGFR1 signal pathway in Ba/F3‐FGFR1‐V561F; test: Western blot of FGFR1 signal pathway
Protocol: Cells were treated with different concentrations of compound or DMSO for indicated time. Then, cells were lysed with 1 × SDS sample lysis buffer (recommended by CST). […] After blocking with 5% BSA in TBST solution (0.5% Tween‐20) at room temperature for 4 hrs, the membranes were incubated with the corresponding primary antibody (1:2000–1:200) at 4℃ overnight. After washing with TBST for 3–5 times, the HRP‐conjugated secondary antibodies were incubated for 2 hrs. The protein signals were detected with Amersham Imager 600 system (GE, Boston, MA, USA) using an ECL western blotting detection kit (Thermo Fisher Scientific, Waltham, MA, USA).
Cell lysates were separated by sodium dodecyl sulfate‐polyacrylamide gel electrophoresis (SDS‐PAGE) and analyzed by western blot for phosphorylated FGFR1, FGFR1, phosphorylated FRS2, FRS2, phosphorylated AKT (Ser473), AKT, phosphorylated Erk, and Erk. GAPDH was used as a control

Ba/F3‐FGFR1‐V561F [3] = test: Apoptosis assay by flow cytometry (Annexin V / 7-AAD)
Protocol: After incubation, cells were collected and washed twice with pre‐cold PBS. About 6 × 10^5 cells were resuspended in 100 μl of 1× BD binding buffer solution (#556454, BD), and then stained with 7‐ADD (#559925, BD) and Annexin V‐PE (#556422, BD) in the dark for 15 min. Finally, 400 μl of 1×BD binding buffer solution were added to stop dyeing. The cells were then measured on a Guava easyCyte flow cytometer (Merck, USA).

[4] = Homo sapiens, MDA-MB-231, 72 h, read-out: antiproliferative IC50, MDA‐MB‐231, negative control

IC50 (SNU16): 18.6 ± 6.3 nM
IC50 (H1581): 19.4 ± 2.5 nM
IC50 (MKN‐1): 5110 ± 481 nM
IC50 (Ba/F3‐FGFR1; BaF3, CCK-8, 72 h): 31 ± 2.9 nM
IC50 (Ba/F3‐FGFR1‐V561F [1]; BaF3, CCK-8, 72 h, read-out: IC50 (μΜ) Ba/F3‐FGFR1‐V561F): 4250 ± 64 nM
IC50 (Ba/F3‐FGFR1‐V561F [1]; BaF3, bound stated, read-out: IC50 Ba/F3‐FGFR1‐V561F): > 330 nM
IC50 (Ba/F3‐FGFR1‐K656N; BaF3, CCK-8, 72 h): 82 ± 5.5 nM
IC50 (Ba/F3‐FGFR1‐V561M; BaF3, CCK-8, 72 h, read-out: IC50 (μΜ) Ba/F3‐FGFR1‐V561M): 4380 ± 280 nM
IC50 (Ba/F3‐FGFR1‐V561M; BaF3, bound stated, read-out: IC50 Ba/F3‐FGFR1‐V561M): > 330 nM
IC50 (Ba/F3‐FGFR1‐K656E; BaF3, CCK-8, 72 h, read-out: IC50 (μΜ) Ba/F3‐FGFR1‐K656E): 330 ± 2.9 nM
IC50 (Ba/F3‐FGFR1‐K656E; BaF3, bound stated, read-out: IC50 Ba/F3‐FGFR1‐K656E): > 330 nM
Compound: CCN1CCN(c2ccc(Nc3cc(N(C)C(=O)Nc4c(Cl)c(OC)cc(OC)c4Cl)ncn3)cc2)CC1 [BGJ398]
IC50 (NCI‐H716): 4.2 ± 0.8 nM
IC50 (KATOIII): 17.1 ± 2.4 nM
IC50 (MDA‐MB‐231; [4]): > 10000 nM
IC50 (MDA‐MB‐453): 2700 ± 104 nM
IC50 (RT112): 233 ± 76.7 nM
activation of FGFR1 and its signal pathway ([2]; 300 nM): no effects
effect on apoptosis (Ba/F3‐FGFR1‐V561F [3]; 1000 nM): weak effect

Compound: Cc1ccc(C(=O)Nc2ccc(CN3CCN(C)CC3)c(C(F)(F)F)c2)cc1C#Cc1cnc2[nH]ncc2c1 [GZD824]
IC50 (NCI‐H716): 4 ± 0.5 nM
IC50 (KATOIII): 9.8 ± 1.2 nM
IC50 (SNU16): 14.4 ± 4.8 nM
IC50 (H1581): 10.8 ± 0.8 nM
IC50 (MDA‐MB‐231; [4]): > 1000 nM
IC50 (MDA‐MB‐231; read-out: antiproliferative IC50, MDA‐MB‐231, negative control): 2000 ± 782 nM
IC50 (MKN‐1): 743 ± 31.8 nM
IC50 (MDA‐MB‐453): 148 ± 104 nM
IC50 (RT112): 91 ± 5.7 nM
IC50 (Ba/F3‐FGFR1; BaF3, 72 h): 8.1 ± 1.1 nM
IC50 (Ba/F3‐FGFR1‐V561F [1]; BaF3, 72 h, read-out: IC50 (μΜ) Ba/F3‐FGFR1‐V561F): 12 ± 0.5 nM
IC50 (Ba/F3‐FGFR1‐K656N; BaF3, 72 h): 12 ± 2 nM
IC50 (Ba/F3‐FGFR1‐V561M; BaF3, 72 h, read-out: IC50 (μΜ) Ba/F3‐FGFR1‐V561M): 55 ± 3.7 nM
IC50 (Ba/F3‐FGFR1‐K656E; BaF3, 72 h, read-out: IC50 (μΜ) Ba/F3‐FGFR1‐K656E): 20.6 ± 0.8 nM
FGFR1 phosphorylation, downstream FRS2 and ERK1/2 ([2]; 4 h, 3.7 nM to 300 nM): dose‐dependent inhibition
apoptosis (Ba/F3‐FGFR1‐V561F [3]; 100 nM, 48 h): 71.01%
